# Reference: patent US4927817A, “Preventive and therapeutic agent against liver disorder” (Zeria Pharmaceutical Co., Ltd., priority 1986, dated 1990)
# “Also recorded” adds a separate entry of the source.
# Columns and labels:
# [1] = test system: liver disorder caused by carbon tetrachloride; test: prevention of experimental liver disorder in rat caused by carbon tetrachloride: serum GOT and GPT; type: in vivo, male Wistar rats; conditions: for GOT (serum) / GPT (serum): CCl4 0.4 ml/kg oral 1 h after last dose, blood at 24 h; for GOT (serum): CCl4 + CMC control 2115.9 ± 260.2; for GPT (serum): CCl4 + CMC control 2243.8 ± 333.0
# Procedure: (§1) Carnosine zinc salt was suspended in 0.5% sodium carboxymethyl cellulose (CMC) solution to prepare 60 mg/ml and 20 mg/ml suspensions. This was given to rats orally every day for 8 days at the rate of 0.5 ml/100 g so that the dosage was to be 300 mg/kg and 100 mg/kg, respectively. To the control group, the same volume of 0.5% CMC was given.
# (§2) To prepare the model animals with liver disorder caused by carbon tetrachloride, carbon tetrachloride mixed in olive oil to have a 10% (V/V) mixture was given orally at the rate of 4 ml/kg (0.4 ml/kg as carbon tetrachloride) one hour after the final administration of carnosine zinc salt or 0.5% CMC. The animals were anesthetized by intraperitoneal injection of pentobarbital at 24 hours after carbon tetrachloride was given, and blood was collected from carotid arteries. The blood was centrifuged at 3000 rpm for 15 minutes to fractionate serum, and GOT and GPT were determined (Reitman Frankel and Momose modification).
# For the experiment, male Wistar rats were used. With 10 rats in each group, they were divided into three groups: the group given with carbon tetrachloride (CCl4) and 0.5% CMC only (CCl4 +CMC), the group given with carbon tetrachloride and 300 mg/kg or 100 mg/kg of carnosine zinc salt (CCl4 +carnosine zinc salt) and the group given with 0.5% CMC only (CMC).
# [2] = test system: hepatitis experimentally induced by carbon tetrachloride; test: carnosine zinc salt given after liver disorder had actually occurred (carbon tetrachloride hepatitis); type: in vivo, model animals; conditions: CCl4 hepatitis
# [3] = acute toxicity test, oral; type: in vivo, female and male Wistar rats
# Description: In the acute toxicity test, female and male Wistar rats, each with body weight 150-200 g, were divided into the groups with 10 rats each, and 10 g/kg each of carnosine zinc salt was given orally.
# hepatic cells = test: histopathological examination of isolated liver (H-E staining) in rats given carbon tetrachloride; type: in vivo, male Wistar rats
# Procedure: as §1, §2
# From the isolated liver, the paraffined sections were prepared, stained by H-E staining and were examined by histopathological examination.
# For the experiment, male Wistar rats were used. […]
# [4] = 100 mg/kg oral daily for 8 days
# [5] = 300 mg/kg oral daily for 8 days
structure (smiles),measurement,setting,value
"NCCC(=O)[N-][C@@H](Cc1c[nH]cn1)C(=O)[O-].[Zn+2] [carnosine zinc salt, L-carnosine zinc salt]",GOT (serum),[1]; [4],2167.7 ± 777.5 KU
same,GPT (serum),[1]; [4],1917.7 ± 748.6 KU
same,"GPT and GOT in blood, statistical significance","[1]; 300 mg/kg administration group, risk rate of 1%",significantly decreased at risk rate of 1%
same,GOT (serum),[1]; [5],629.7 ± 121.2 KU
same,GPT (serum),[1]; [5],427.7 ± 69.4 KU
same,increase of hepatic enzymes in blood,"[1]; given before liver disorder occurs, CCl4 hepatitis",effectively prevented
same,increase of GPT and GOT in blood,"[1]; oral, depending upon the dosage, CCl4 rats","significant decline in the increase of GPT and GOT in blood; also recorded: suppresses increase of GPT and GOT in blood, depending upon the dosage"
same,prevention of experimental liver disorder caused by carbon tetrachloride,"[1]; oral, rat",effect of carnosine zinc salt to prevent the experimental liver disorder caused by carbon tetrachloride
same,preventive effect when given after liver disorder had occurred,[2],the same preventive effect was obtained
same,death in acute toxicity test,"[3]; 10 g/kg oral, observation for 7 days, female and male rats",no case of death
same,acute toxicity,[3]; oral,very weak toxicity; also recorded: extremely weak
same,necrosis of hepatic cells and fat formation,"hepatic cells; group given carnosine zinc salt, CCl4 rats",suppression of necrosis of hepatic cells and fat formation
same,degree of necrosis of hepatic cells,hepatic cells; improvement of liver disorder,reduction of the degree of necrosis of hepatic cells
